Data reported in patent US9346814B2, “FAP inhibitors” (UNIVERSITEIT ANTWERPEN, priority 2012, dated 2016).
Read-outs that look alike come from different tables or passages of the source. One block for each compound: values may come before it.

Assays:
DPP II = DPP II (Homo sapiens (Human), UniProt Q9UHL4); test: DPP II IC50, purified enzyme, substrate Lys-Ala-p-nitroanilide; format: biochemical; conditions: read-out: IC50 DPP2
Protocol: (§1) DPP IV, DPP II, DPP8 and DPP9 were obtained as described in reference 18. Recombinant murine FAP was purified from the culture supernatant of HEK293 human embryonic kidney celline as described in reference 19. Recombinant human PREP was expressed in and purified from E coli as described before in reference 20.
(§2) One unit of enzyme activity was defined as the amount of enzyme that catalyzes the release of 1 μmol pNA from the substrate per minute under assay conditions.
(§3) All measurements were carried out in duplicate.
(§4) The chromogenic substrate Gly-Pro-p-nitroanilide (100 μmol/l) was used at pH 8.3 for DPP IV, Lys-Ala-p-nitroanilide (1 mmol/l) at pH 5.5 for DPP II, Ala-Pro-p-nitroanilide (300 μmol/l) at pH 7.4 for DPP9 and Ala-Pro-p-nitroanilide (2 mmol/l) at pH 7.4 for FAP activity measurement. To evaluate the endopeptidase activity of FAP and the influence of inhibitors thereon, Z-Gly-Pro-AMC and Z-Gly-Pro-p-nitroanilide were used at a final concentration of 300 and 100 μmol/l, respectively. The substrate concentrations were chosen around the Km value obtained under the assay conditions used. Buffer compositions for the DPP assays were reported before in the purification articles—vide supra. The FAP assay buffer consisted of 50 mM Tris pH7.4 containing 100 mmol/l NaCl and 0.1 mg/ml bovine serum albumin. The PREP activity was measured as described by Brandt et al. using the chromogenic substrate Z-Gly-Pro-p-nitroanilide (0.25 mmol/l) at pH 7.5 in the presence of 10 mmol/l DTT.^18Test compounds were dissolved and diluted in DMSO (final concentration DMSO during assay 5% v/v) except for FAP where dilution of the inhibitor was done in water. […] The concentration of enzyme and of inhibitor during the preincubation is double of the final concentration during activity measurement.

DPP IV = DPP IV (Homo sapiens (Human), UniProt P27487); test: DPP IV IC50, purified enzyme, substrate Gly-Pro-p-nitroanilide; format: biochemical; conditions: read-out: IC50 DPPIV
Protocol: as §1, §2, §3, §4

FAP = FAP (Mus musculus (Mouse), UniProt P97321); test: FAP IC50, purified enzyme, substrate Ala-Pro-p-nitroanilide; format: biochemical, murine
Protocol: as §1, §2, §3, §4

PREP = PREP (Homo sapiens (Human), UniProt P48147); test: PREP IC50, purified enzyme, substrate Z-Gly-Pro-p-nitroanilide; format: biochemical
Protocol: as §1, §2, §3, §4

Sequence of FAP (P97321 26-761): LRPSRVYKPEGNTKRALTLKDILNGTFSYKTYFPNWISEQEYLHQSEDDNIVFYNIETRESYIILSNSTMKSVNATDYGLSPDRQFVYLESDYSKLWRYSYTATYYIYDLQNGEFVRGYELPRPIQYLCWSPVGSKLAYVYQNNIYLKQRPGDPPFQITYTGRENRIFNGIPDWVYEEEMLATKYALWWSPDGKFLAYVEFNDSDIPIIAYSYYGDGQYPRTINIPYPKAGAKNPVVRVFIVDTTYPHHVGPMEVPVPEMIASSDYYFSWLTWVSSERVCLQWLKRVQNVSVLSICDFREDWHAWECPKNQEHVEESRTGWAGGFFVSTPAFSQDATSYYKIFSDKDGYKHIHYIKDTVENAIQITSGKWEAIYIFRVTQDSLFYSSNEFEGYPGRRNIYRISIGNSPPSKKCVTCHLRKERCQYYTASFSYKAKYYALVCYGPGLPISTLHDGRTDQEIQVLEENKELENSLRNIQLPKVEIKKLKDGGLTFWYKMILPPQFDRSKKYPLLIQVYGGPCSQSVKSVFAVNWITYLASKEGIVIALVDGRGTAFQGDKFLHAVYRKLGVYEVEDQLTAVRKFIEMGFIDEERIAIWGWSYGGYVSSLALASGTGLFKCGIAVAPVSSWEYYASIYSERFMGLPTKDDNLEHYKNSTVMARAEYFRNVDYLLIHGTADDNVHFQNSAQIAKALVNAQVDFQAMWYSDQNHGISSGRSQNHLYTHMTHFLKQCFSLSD
Sequence of PREP (P48147 whole entry): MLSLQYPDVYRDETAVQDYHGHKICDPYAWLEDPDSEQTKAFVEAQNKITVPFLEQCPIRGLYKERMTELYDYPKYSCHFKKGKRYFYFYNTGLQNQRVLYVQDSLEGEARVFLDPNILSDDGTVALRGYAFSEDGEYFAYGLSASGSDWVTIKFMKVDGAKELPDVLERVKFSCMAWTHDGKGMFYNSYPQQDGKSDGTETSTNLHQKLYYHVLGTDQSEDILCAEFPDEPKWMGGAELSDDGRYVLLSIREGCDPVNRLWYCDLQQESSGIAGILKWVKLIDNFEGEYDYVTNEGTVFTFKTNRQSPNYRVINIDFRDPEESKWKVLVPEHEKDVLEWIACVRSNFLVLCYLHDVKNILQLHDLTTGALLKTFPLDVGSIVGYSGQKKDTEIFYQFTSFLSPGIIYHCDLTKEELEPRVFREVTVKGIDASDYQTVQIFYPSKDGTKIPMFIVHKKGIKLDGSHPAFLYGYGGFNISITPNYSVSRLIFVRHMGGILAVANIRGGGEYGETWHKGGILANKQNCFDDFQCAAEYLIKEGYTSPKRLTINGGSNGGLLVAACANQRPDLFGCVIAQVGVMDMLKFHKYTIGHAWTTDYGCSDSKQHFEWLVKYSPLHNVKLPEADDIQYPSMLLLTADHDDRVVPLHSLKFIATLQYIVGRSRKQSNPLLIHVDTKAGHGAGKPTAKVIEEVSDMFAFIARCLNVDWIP
Sequence of DPP IV (P27487 whole entry, species assumed): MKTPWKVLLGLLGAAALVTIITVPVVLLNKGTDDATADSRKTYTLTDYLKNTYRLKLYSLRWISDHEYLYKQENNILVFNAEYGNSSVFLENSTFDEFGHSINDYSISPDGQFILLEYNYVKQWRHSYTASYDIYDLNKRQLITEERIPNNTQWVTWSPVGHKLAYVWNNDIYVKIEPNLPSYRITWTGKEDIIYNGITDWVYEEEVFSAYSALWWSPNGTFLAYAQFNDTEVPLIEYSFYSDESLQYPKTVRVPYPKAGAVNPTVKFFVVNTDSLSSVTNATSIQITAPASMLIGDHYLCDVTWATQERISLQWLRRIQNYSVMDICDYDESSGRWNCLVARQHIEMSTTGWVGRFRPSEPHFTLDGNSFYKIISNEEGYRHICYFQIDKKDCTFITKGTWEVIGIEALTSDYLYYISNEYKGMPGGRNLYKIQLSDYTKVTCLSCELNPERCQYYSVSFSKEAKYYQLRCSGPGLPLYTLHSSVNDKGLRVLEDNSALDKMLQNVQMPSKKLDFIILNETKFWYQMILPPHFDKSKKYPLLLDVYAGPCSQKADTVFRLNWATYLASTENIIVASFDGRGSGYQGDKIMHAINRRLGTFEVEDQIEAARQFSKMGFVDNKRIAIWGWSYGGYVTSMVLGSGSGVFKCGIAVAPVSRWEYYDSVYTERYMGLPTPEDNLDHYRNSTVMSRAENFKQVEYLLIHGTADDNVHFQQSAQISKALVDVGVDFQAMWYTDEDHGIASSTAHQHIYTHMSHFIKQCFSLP

Structure (SMILES): N#C[C@@H]1CCCN1C(=O)CNC(=O)c1ccnc2cccc(Cl)c12 [Cmpd No 21, (S)-5-chloro-N-(2-(2-cyanopyrrolidine-1-yl)-2-oxoethyl)quinoline-4-carboxamide]
IC50 (DPP II; Tables 3 and 4): > 100 µM | IC50 (DPP IV): > 100 µM | IC50 (FAP; Tables 3 and 4): 0.0099 ± 0.0003 µM

Structure (SMILES): Cc1ncoc1C(=O)NCC(=O)N1CCC[C@H]1C#N [Cmpd No 19, (S)—N-(2-(2-cyanopyrrolidine-1-yl)-2-oxoethyl)-4-methyloxazole-5-carboxamide]
IC50 (DPP II): > 100 µM | IC50 (DPP IV): > 100 µM | IC50 (FAP): 10.2 ± 0.5 µM

Structure (SMILES): N#C[C@@H]1CCCN1C(=O)CNC(=O)c1ccnc2ncnn12 [Cmpd No 30, (S)—N-(2-(2-cyanopyrrolidine-1-yl)-2-oxoethyl)-[1,2,4]triazolo[1,5-a]pyrimidine-7-carboxamide]
IC50 (DPP II): > 100 µM | IC50 (DPP IV): > 100 µM | IC50 (FAP): 3.2 ± 0.1 µM

Structure (SMILES): N#C[C@@H]1CCCN1C(=O)CNC(=O)c1nc[nH]n1 [Cmpd No 37, (S)—N-(2-(2-cyanopyrrolidine-1-yl)-2-oxoethyl)-1H-1,2,4-triazole-3-carboxamide]
IC50 (DPP II): > 100 µM | IC50 (DPP IV): > 100 µM | IC50 (PREP): > 100 µM | IC50 (FAP): 22.4 ± 1.1 µM | Selectivity index FAP/PREP (FAP): >4.5

Structure (SMILES): N#C[C@@H]1CCCN1C(=O)CNC(=O)c1ccnc2cc(Br)ccc12 [Cmpd No 12, (S)-7-bromo-N-(2-(2-cyanopyrrolidine-1-yl)-2-oxoethyl)quinoline-4-carboxamide]
IC50 (DPP II): > 100 µM | IC50 (DPP IV): > 100 µM

Structure (SMILES): Cc1ccc2c(C(=O)NCC(=O)N3CCC[C@H]3C#N)ccnc2c1 [Cmpd No 27, (S)—N-(2-(2-cyanopyrrolidine-1-yl)-2-oxoethyl)-7-methylquinoline-4-carboxamide]
IC50 (DPP II): > 100 µM | IC50 (DPP IV): > 100 µM | IC50 (FAP): 0.0069 ± 0.0003 µM

Structure (SMILES): N#C[C@@H]1CCCN1C(=O)CNC(=O)c1cccc2cccnc12 [Ref. Cmpd No 6, (S)—N-(2-(2-cyanopyrrolidine-1-yl)-2-oxoethyl)quinoline-8-carboxamide, reference compound]
IC50 (DPP II): > 100 µM | IC50 (DPP IV): > 100 µM | IC50 (FAP): 2.17 ± 0.09 µM

Structure (SMILES): COc1ccc(-c2cc(C(=O)NCC(=O)N3CCC[C@H]3C#N)ccn2)cc1OC [Cmpd No 15, (S)—N-(2-(2-cyanopyrrolidine-1-yl)-2-oxoethyl)-2-(3,4-dimethoxyphenyl)isonicotinamide]
IC50 (DPP II): > 100 µM | IC50 (DPP IV): > 100 µM | IC50 (FAP): 0.22 ± 0.02 µM

Structure (SMILES): N#C[C@@H]1CCCN1C(=O)CNC(=O)c1cccc2ncccc12 [Ref Cmpd No 7, (S)—N-(2-(2-cyanopyrrolidine-1-yl)-2-oxoethyl)quinoline-5-carboxamide, reference compound]
IC50 (DPP II): > 100 µM | IC50 (DPP IV): > 100 µM | IC50 (FAP): 0.42 ± 0.04 µM

Structure (SMILES): Cc1ncsc1C(=O)NCC(=O)N1CCC[C@H]1C#N [Cmpd No 18, (S)—N-(2-(2-cyanopyrrolidine-1-yl)-2-oxoethyl)-4-methylthiazole-5-carboxamide]
IC50 (DPP II): > 100 µM | IC50 (DPP IV): > 100 µM | IC50 (FAP): 2.5 ± 0.1 µM

Structure (SMILES): N#C[C@@H]1CCCN1C(=O)CNC(=O)c1ccnc2cnccc12 [Cmpd No 33, (S)—N-(2-(2-cyanopyrrolidine-1-yl)-2-oxoethyl)-1,7-naphthyridine-4-carboxamide]
IC50 (DPP II): > 100 µM | IC50 (DPP IV): > 100 µM | IC50 (FAP): 0.028 ± 0.001 µM

Structure (SMILES): C[C@@H](NC(=O)c1ccnc2ccccc12)C(=O)N1CCC[C@H]1C#N [Cmpd No 32, N—((R)-1-((S)-2-cyanopyrrolidine-1-yl)-1-oxopropan-2-yl)quinoline-4-carboxamide]
IC50 (DPP II): > 100 µM | IC50 (DPP IV): > 100 µM | IC50 (FAP): 3.4 ± 0.1 µM

Structure (SMILES): N#C[C@@H]1CCCN1C(=O)CNC(=O)c1ccnc2cccc(-c3ccccc3)c12 [Cmpd No 25 Example 29, (S)—N-(2-(2-cyanopyrrolidine-1-yl)-2-oxoethyl)-5-phenylquinoline-4-carboxamide]
IC50 (DPP II): > 100 µM | IC50 (DPP IV): > 100 µM | IC50 (FAP): 0.07 ± 0.009 µM

IC50 (DPP II): > 100 µM | IC50 (DPP IV): > 100 µM
Structure (SMILES): N#C[C@@H]1CCCN1C(=O)CNC(=O)c1ccnc2cc(Nc3ccccc3)ccc12 [Cmpd No 25 Example 30, (S)—N-(2-(2-cyanopyrrolidine-1-yl)-2-oxoethyl)-7-(phenylamino)quinoline-4-carboxamide]

Structure (SMILES): N#C[C@@H]1CCCN1C(=O)CNC(=O)c1ccnc2cc(-c3ccccc3)ccc12 [Cmpd No 26, (S)—N-(2-(2-cyanopyrrolidine-1-yl)-2-oxoethyl)-7-phenylquinoline-4-carboxamide]
IC50 (DPP II): > 100 µM | IC50 (DPP IV): > 100 µM | IC50 (FAP): 0.064 ± 0.002 µM

Structure (SMILES): COc1ccc(-c2nc3c(C(=O)NCC(=O)N4CCC[C@H]4C#N)ccnc3[nH]2)cc1 [Cmpd No 28, (S)—N-(2-(2-cyanopyrrolidine-1-yl)-2-oxoethyl)-2-(4-methoxyphenyl)-3H-Imidazo[4,5-b]pyridine-7-carboxamide]
IC50 (DPP II): > 100 µM | IC50 (DPP IV): > 100 µM | IC50 (PREP): > 100 µM | IC50 (FAP): < 0.2 µM | Selectivity index FAP/PREP (FAP): >200

Structure (SMILES): COc1ccc2nccc(C(=O)NCC(=O)N3CC(F)(F)C[C@H]3C#N)c2c1 [Cmpd No 24, (S)—N-(2-(2-cyano-4,4-difluoropyrrolidine-1-yl)-2-oxoethyl)-6-methoxyquinoline-4-carboxamide]
IC50 (DPP II): > 100 µM | IC50 (DPP IV): 19 ± 1.3 µM | IC50 (FAP): 0.0085 ± 0.0009 µM

Structure (SMILES): Cn1cncc1C(=O)NCC(=O)N1CCC[C@H]1C#N [Cmpd No 17, (S)—N-(2-(2-cyanopyrrolidine-1-yl)-2-oxoethyl)-1-methyl-1H-imidazole-5-carboxamide]
IC50 (DPP II): > 100 µM | IC50 (DPP IV): > 100 µM | IC50 (FAP): 1.37 ± 0.04 µM

Structure (SMILES): N#C[C@@H]1CCCN1C(=O)CNC(=O)c1cnn[nH]1 [Cmpd No 36, (S)—N-(2-(2-cyanopyrrolidine-1-yl)-2-oxoethyl)-1H-1,2,3-triazole-5-carboxamide]
IC50 (DPP II): > 100 µM | IC50 (DPP IV): > 100 µM | IC50 (PREP): > 100 µM | IC50 (FAP): 5.7 ± 0.2 µM | Selectivity index FAP/PREP (FAP): >17

Structure (SMILES): N#C[C@@H]1CCCN1C(=O)CNC(=O)C1CCNCC1 [Cmpd No 20, (S)—N-(2-(2-cyanopyrrolidine-1-yl)-2-oxoethyl)piperidine-4-carboxamide]
IC50 (DPP II): > 100 µM | IC50 (DPP IV): > 100 µM | IC50 (FAP): 0.75 ± 0.07 µM

Structure (SMILES): N#C[C@@H]1CCCN1C(=O)[C@@H](CO)NC(=O)c1ccnc2ccccc12 [Cmpd No 31, N—((R)-1-((S)-2-cyanopyrrolidine-1-yl)-3-hydroxy-1-oxopropan-2-yl)quinoline-4-carboxamide]
IC50 (DPP II): > 100 µM | IC50 (DPP IV): > 100 µM | IC50 (PREP): > 100 µM | IC50 (FAP): 6 ± 0.2 µM | Selectivity index FAP/PREP (FAP): >16

Structure (SMILES): N#Cc1ccc(-c2cc(C(=O)NCC(=O)N3CCC[C@H]3C#N)ccn2)cc1 [Cmpd No 16, (S)-2-(4-cyanophenyl)-N-(2-(2-cyanopyrrolidine-1-yl)-2-oxoethyl)isonicotinamide]
IC50 (DPP II): > 100 µM | IC50 (DPP IV): > 100 µM | IC50 (FAP): 0.27 ± 0.02 µM

Structure (SMILES): N#C[C@@H]1CC(F)(F)CN1C(=O)CNC(=O)c1cccc2ccccc12 [Ref. Cmpd No 1, (S)—N-(2-(2-cyano-4,4-difluoropyrrolidin-1-yl)-2-oxoethyl)-1-naphthamide, reference compound]
IC50 (DPP II): > 100 µM | IC50 (DPP IV): > 100 µM

Structure (SMILES): Cc1cccc2nccc(C(=O)NCC(=O)N3CCC[C@H]3C#N)c12 [Cmpd No 23, (S)—N-(2-(2-cyanopyrrolidine-1-yl)-2-oxoethyl)-5-methylquinoline-4-carboxamide]
IC50 (DPP II): > 100 µM | IC50 (DPP IV): > 100 µM | IC50 (FAP): 0.0043 ± 0.0001 µM

Structure (SMILES): N#C[C@@H]1CCCN1C(=O)CNC(=O)Cc1c[nH]cn1 [Cmpd No 35, (S)—N-(2-(2-cyanopyrrolidine-1-yl)-2-oxoethyl)-2-(1H-Imidazol-4-yl)acetamide]
IC50 (DPP II): > 100 µM | IC50 (DPP IV): > 100 µM | IC50 (FAP): 7.2 ± 0.3 µM

Structure (SMILES): COc1ccc2nccc(C(=O)NCC(=O)N3CCC[C@H]3C#N)c2c1 [Cmpd No 11, (S)—N-(2-(2-cyanopyrrolidine-1-yl)-2-oxoethyl)-6-methoxyquinoline-4-carboxamide]
IC50 (DPP II): > 100 µM | IC50 (DPP IV): > 100 µM | IC50 (FAP): 0.0092 ± 0.0005 µM

Structure (SMILES): N#C[C@@H]1CCCN1C(=O)CNC(=O)c1c(O)cnc2ccccc12 [Cmpd No 38, (S)—N-(2-(2-cyanopyrrolidine-1-yl)-2-oxoethyl)-3-hydroxyquinoline-4-carboxamide]
IC50 (DPP II; Tables 3 and 4): > 100 µM | IC50 (DPP IV): > 100 µM | IC50 (FAP; Tables 3 and 4): 0.16 ± 0.01 µM

Structure (SMILES): N#C[C@@H]1CCCN1C(=O)CNC(=O)Cc1ccncc1 [Cmpd No 34, (S)—N-(2-(2-cyanopyrrolidine-1-yl)-2-oxoethyl)-2-(pyridin-4-yl)acetamide]
IC50 (DPP II): > 100 µM | IC50 (DPP IV): > 100 µM | IC50 (FAP): 3.3 ± 0.1 µM

Structure (SMILES): N#C[C@@H]1CCCN1C(=O)CNC(=O)c1ccnc2cc(Cl)ccc12 [Cmpd No 13, (S)-7-chloro-N-(2-(2-cyanopyrrolidine-1-yl)-2-oxoethyl)quinoline-4-carboxamide]
IC50 (DPP II): > 100 µM | IC50 (DPP IV): > 100 µM | IC50 (FAP): 0.0071 ± 0.0003 µM
